These results are taken from article PMC11991097 (2025).

In general, Kd refers to a measure of binding affinity in units of concentration.

For experiment [1], the system named is Del-1 (DNA, aptamer) ACCGACCGTGCTGGACTCTAAGGTGGAGTTATAGGCTTACTGCCACGTCAGTATGAGCGAGCGTTGCG
Nature of the experiment: magnetic bead elution; AuNP/PDDA colorimetry. The settings on record: 50 μg/mL (beads), 2 μg/mL (colorimetry, MOPS); elution much lower than Del; ΔA650/A520 about 0.4.

For experiment [2] the test system is unchanged. The experiment is described as follows: magnetic bead elution, ssDNA absorbance, nonlinear fit. The settings on record: PBS screening buffer; room temperature, 2 h; Del fixed 50 μg/mL, aptamer varied 50–500 nM; capture strand P displaced.

As to `CC1(C)C(C(=O)OC(C#N)c2cccc(Oc3ccccc3)c2)C1(C)C` (stereo not drawn), the binding entry in experiment [1] is reported as “weak”.

In the case of `CC1(C)C(C=C(Cl)Cl)C1C(=O)OC(C#N)c1cccc(Oc2ccccc2)c1` (stereo not drawn), the binding result in experiment [1] is on record as “weak”. In experiment [2], `CC1(C)[C@H](C(=O)O[C@H](C#N)c2cccc(Oc3ccccc3)c2)[C@@H]1C=C(Br)Br` came in with a Kd of 82.90 ± 6.272 nM.
